Source: ChEMBL document CHEMBL5523756, “Molecular Transformers: Adaptive Multitarget Ligands for Esterase-Induced Transition from Analgesics to Anesthetics” (J Med Chem, 2024)
Activity calls are given as the source filed them.

Tests used:
Mus musculus = test: Analgesic effect in ICR mouse model of CFA-induced chronic inflammatory pain assessed as increase in paw withdrawal threshold at 0.07 mmol/kg, ip measured upto 90 mins by Von Frey test; type: functional, organism-based
Cocaine esterase = target: T1, Cocaine esterase (Homo sapiens, UniProt O00748); test: Drug metabolism assessed as human CES2-mediated propofol release at 1 mg/ml measured upto 240 mins by LC-MS analysis; type: ADME; conditions: 4 h
T1 sequence (O00748 whole entry): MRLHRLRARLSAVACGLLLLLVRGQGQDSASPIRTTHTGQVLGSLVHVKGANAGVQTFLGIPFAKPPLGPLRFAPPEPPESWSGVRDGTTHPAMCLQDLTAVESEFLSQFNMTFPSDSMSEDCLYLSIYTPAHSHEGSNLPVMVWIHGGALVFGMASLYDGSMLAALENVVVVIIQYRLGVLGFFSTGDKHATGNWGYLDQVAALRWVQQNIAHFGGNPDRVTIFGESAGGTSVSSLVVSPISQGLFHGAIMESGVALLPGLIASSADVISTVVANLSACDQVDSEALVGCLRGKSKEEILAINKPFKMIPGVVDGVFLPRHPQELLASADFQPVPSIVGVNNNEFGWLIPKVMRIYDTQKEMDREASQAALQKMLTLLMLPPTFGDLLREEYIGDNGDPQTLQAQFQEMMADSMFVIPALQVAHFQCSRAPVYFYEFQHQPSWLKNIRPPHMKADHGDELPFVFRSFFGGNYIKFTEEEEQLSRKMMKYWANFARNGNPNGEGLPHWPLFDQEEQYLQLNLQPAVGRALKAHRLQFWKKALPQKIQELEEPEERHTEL

## CCN(CC)CCOC(=O)Oc1c(C(C)C)cccc1C(C)C.Cl
Mus musculus
  Activity: Active
Cocaine esterase
  Drug metabolism: Metabolite_Detected
